Assay results published in ChEMBL document CHEMBL1154424, “Effect of delayed pulsed-wave ultrasound on local pharmacokinetics and pharmacodynamics of vancomycin-loaded acrylic bone cement in vivo” (Antimicrob Agents Chemother, 2007).
Values after ≈ are worked out from the molar mass of the structure shown.

Columns and labels:
Staphylococcus aureus [1] = experiment: (§1) Antimicrobial activity against Staphylococcus aureus ATCC 13565 infected in New Zealand white rabbit assessed as reduction of bacterial count per gram of femoral tissue at 3 g administered drug-loaded in acrylic bone cement implanted in hips treated with 300 mW/cm2 normal ultrasound for 0 to 12 hrs after surgery; format: functional
Staphylococcus aureus [2] = experiment: as §1, with “in hip aspirates” for “per gram of femoral tissue”; format: functional
Staphylococcus aureus [3] = experiment: T>MIC in Staphylococcus aureus ATCC 13565 infected New Zealand white rabbit at 3 g administered drug-loaded acrylic bone cement implanted in hips exposed to 300 mW/cm2 delayed ultrasound for 12 to 24 hrs; format: ADME, organism-based; conditions: in vivo, other
Staphylococcus aureus [4] = experiment: microbe, parasite or virus in culture; conditions: ATCC 13565
Description: Antibacterial activity against Staphylococcus aureus ATCC 13565 by tube dilution method

Oryctolagus cuniculus [5] = experiment: Effect on local hemorrhage in Staphylococcus aureus ATCC 13565 infected New Zealand white rabbit hip assessed as total volume of drainage fluid at 3 g administered drug-loaded acrylic bone cement implanted in hips treated with 300 mW/cm2 normal ultrasound for 0 to 12 hrs after surgery; format: ADME, organism-based; conditions: in vivo, other
Staphylococcus aureus [6] = experiment: T>MIC in Staphylococcus aureus ATCC 13565 infected New Zealand white rabbit at 3 g administered drug-loaded acrylic bone cement implanted in hips after 48 hrs surgery without ultrasound; format: ADME, organism-based; conditions: in vivo, other
Oryctolagus cuniculus [7] = experiment: Effect on local hemorrhage in Staphylococcus aureus ATCC 13565 infected New Zealand white rabbit hip assessed as total volume of drainage fluid at 3 g administered drug-loaded acrylic bone cement implanted in hips treated with 300 mW/cm2 normal ultrasound for 12 to 24 hrs after surgery; format: ADME, organism-based; conditions: in vivo, other
Staphylococcus aureus [8] = experiment: T>MIC in Staphylococcus aureus ATCC 13565 infected New Zealand white rabbit at 3 g administered drug-loaded acrylic bone cement implanted in hips at 3 g exposed to 300 mW/cm2 delayed ultrasound for 0 to 12 hrs; format: ADME, organism-based; conditions: in vivo, other
Staphylococcus aureus [9] = experiment: as §1, with “for 12” for “for 0”, “to 24” for “to 12”; format: functional
Staphylococcus aureus [10] = experiment: as §1, with “count in hip aspirates” for “count per gram of femoral tissue”, “for 12” for “for 0”, “to 24” for “to 12”; format: functional

CN[C@H](CC(C)C)C(=O)N[C@H]1C(=O)N[C@@H](CC(N)=O)C(=O)N[C@H]2C(=O)N[C@H]3C(=O)N[C@H](C(=O)N[C@H](C(=O)O)c4cc(O)cc(O)c4-c4cc3ccc4O)[C@H](O)c3ccc(c(Cl)c3)Oc3cc2cc(c3O[C@@H]2O[C@H](CO)[C@@H](O)[C@H](O)[C@H]2O[C@H]2C[C@](C)(N)[C@H](O)[C@H](C)O2)Oc2ccc(cc2Cl)[C@H]1O [VANCOMYCIN]
log10cfu (Staphylococcus aureus [1]): 0.53 | log10CFU/ml (Staphylococcus aureus [2]): 1.62 | T>MIC (Staphylococcus aureus [3]): 35.4 h | MBC (Staphylococcus aureus [4]): 3 µg/mL (≈ 2.07 µM) | Activity (Oryctolagus cuniculus [5]): 4.65 mL | T>MIC (Staphylococcus aureus [6]): 14.89 h | Activity (Oryctolagus cuniculus [7]): 1.32 mL | T>MIC (Staphylococcus aureus [8]): 13.59 h | log10cfu (Staphylococcus aureus [9]): 1.29 | log10CFU/ml (Staphylococcus aureus [10]): 2.77
